# Test system: naive human CD8+ T-cells
# Experiment: CD8+ I-MUNE® T-cell proliferation assay (tritiated thymidine incorporation, dendritic cells + CD8+ T-cells + anti-CD40)
# Type: cell-based
# Conditions: HPV E7.16 9-mer peptides, 5 μg/ml, 45 donors, 1 μg/ml anti-CD40; positive response at least 2.95 times the background
# Experimental: Fresh human peripheral blood cells were collected from humans of unknown exposure status to HPV. These cells were tested to determine antigenic epitopes in HPV 16 and 18, as described in Example 3.
# Peripheral mononuclear blood cells (stored at room temperature, no older than 24 hours) were prepared for use as follows. PBMC's were isolated from buffy coat material by centrifuging over an underlay of Lymphoprep at 1000×g for 30 minutes. The interface layer was collected and washed and counted using the Cell-Dyn 3700 System (Abbott). Then, suspensions containing 10^8 PBMC's resuspended in 30 ml of AIM-V (Invitrogen) were prepared and then allowed to adhere to plastic T-75 culture flasks for two hours. The remainder of the cells were frozen at 5×10^7 cells/ml in 45% FCS (Gibco/BRL), 45% PBS w/o Ca & Mg (Mediatech), and 10% DMSO (Sigma). After the two hour PBMC incubation, non-adherent cells were removed from the flasks. The adherent cells were cultured in the flasks with 800 units/ml recombinant human GM-CSF (R&D Systems) and 100 units/ml recombinant human IL-4 (Endogen) at 37° C., 5% CO2. On day 5 of incubation, 50 units/ml recombinant human Il-1α (Endogen) and 0.2 units/ml recombinant human TNF-α were added to the cultures. Adherent and non-adherent dendritic cells were harvested, washed, and counted on day 7, following a one-hour treatment with […] mitomycin C (Sigma) and 10 mM EDTA.
# Autologous CD8+ T-cells were prepared from frozen aliquots of PBMCs. After thawing and washing in DPBS, CD8+ T-cells were isolated using a commercially available CD8 negative selection kit (Dynal), according to the manufacturer's instructions. Cells were counted using the Abbott Cell-Dyn 3700 System. The purity obtained using these methods was generally found to be greater than 90%.
# This Example describes the assay system used in the present invention. The basic test system is also referred to as the “I-MUNE®” assay system. The basic I-MUNE® assay system was modified as described herein to facilitate analysis of CD8+ T-cell responses. As described in greater detail below, the modifications used in the development of the present invention involved the use of CD8 negative selection beads on PBMC (i.e., instead of CD4). In addition, when CD8 cells were resuspended, […] of a 2 ug/ml anti-CD40 solution was added, before placing the DCs and peptides in the plates (the final concentration of anti-CD40 was 1 ug/ml); and 1 ul of 1 ug/ml PHA was used as a positive control, instead of tetanus toxoid.
# In 96-well, round bottom plates, autologous dendritic cells and CD8+ T-cells were combined with test peptides. More specifically, in a volume of 100 μl/well, 2×10^4 dendritic cells in AIM V were combined with individual peptides (at a final peptide concentration of 5 μg/ml and a final DMSO concentration of 0.25%). After a one-hour incubation at 37° C., 5% CO2, 2×10^5 CD8+ T-cells with 2 μg/ml anti-CD40 (eBioscience; Clone 5C3 mouse IgG1, kappa) were added to the culture for a total volume of 200 μl and a final anti-CD40 concentration of 1 μg/ml per well. Negative control wells contained dendritic cells, CD8+ T-cells and 0.25% DMSO. Positive control wells contained dendritic cells, CD8+ T-cells (at the same concentrations as the test wells) and 0.25% DMSO with 5 μg/ml PHA (Sigma) (List). In some experiments, 1 ug/ml anti-IgG1 (eBioscience; Clone P3 mouse IgG1, kappa) was used as an isotype control for comparison purposes. Individual peptides were tested in duplicate or triplicate for each donor.
# After 5 days of incubation at 37° C., 5% CO2, the cultures were pulsed with 0.25 μCi/well tritiated thymidine (Perkin Elmer). After a subsequent 24 hours of incubation, plates were harvested and assessed for incorporation of the tritiated thymidine (i.e., T-cell proliferation) using a Wallac Microbeta TriLux liquid scintillation counter (Perkin Elmer). Responses were averaged over the duplicate tests performed for each specimen. […]
row,Sequence,Epitope Classification
1,"DEIDGPAGO (DEIDGPAGQ; human papillomavirus) [HPV E7.16 Peptide 36, 9-mer peptide of HPV16 E7]",Moderate (“Moderate epitopes” are those epitopes that produce results that are at least two standard deviations above the mean or three times the background)
2,"DLLMGTLGI (human papillomavirus) [HPV E7.16 Peptide 81, 9-mer peptide of HPV16 E7]",Minor (“Minor epitopes” are those that have a response rate that is at least twice the background value)
3,"DLYCYEQLN (human papillomavirus) [HPV E7.16 Peptide 21, 9-mer peptide of HPV16 E7]",Major (a “major epitope” is defined as having a response rate at least three standard deviations above the mean background response rate)
4,"DTPTLHEYM (human papillomavirus) [HPV E7.16 Peptide 4, 9-mer peptide of HPV16 E7]",Moderate (“Moderate epitopes” are those epitopes that produce results that are at least two standard deviations above the mean or three times the background)
5,"EDLLMGTLG (human papillomavirus) [HPV E7.16 Peptide 80, 9-mer peptide of HPV16 E7]",Minor (“Minor epitopes” are those that have a response rate that is at least twice the background value)
6,"GQAEPDRAH (human papillomavirus) [HPV E7.16 Peptide 43, 9-mer peptide of HPV16 E7]",Minor (“Minor epitopes” are those that have a response rate that is at least twice the background value)
7,"HEYMLDLQP (human papillomavirus) [HPV E7.16 Peptide 9, 9-mer peptide of HPV16 E7]",Minor (“Minor epitopes” are those that have a response rate that is at least twice the background value)
8,"IRTLEDLLM (human papillomavirus) [HPV E7.16 Peptide 76, 9-mer peptide of HPV16 E7]",Minor (“Minor epitopes” are those that have a response rate that is at least twice the background value)
9,IVCPICSQK [HPV E7.16 Peptide 89],Minor (“Minor epitopes” are those that have a response rate that is at least twice the background value)
10,"IVTFCCKCD (human papillomavirus) [HPV E7.16 Peptide 54, 9-mer peptide of HPV16 E7]",Minor (“Minor epitopes” are those that have a response rate that is at least twice the background value)
11,"LEDLLMGTL (human papillomavirus) [HPV E7.16 Peptide 79, 9-mer peptide of HPV16 E7]",Minor (“Minor epitopes” are those that have a response rate that is at least twice the background value)
12,"LHEYMLDLQ (human papillomavirus) [HPV E7.16 Peptide 8, 9-mer peptide of HPV16 E7]",Minor (“Minor epitopes” are those that have a response rate that is at least twice the background value)
13,LLMGTLGIV [HPV E7.16 Peptide 82],Minor (“Minor epitopes” are those that have a response rate that is at least twice the background value)
14,"LMGTLGIVC (human papillomavirus) [HPV E7.16 Peptide 83, 9-mer peptide of HPV16 E7]",Minor (“Minor epitopes” are those that have a response rate that is at least twice the background value)
15,"MGTLGIVCP (human papillomavirus) [HPV E7.16 Peptide 84, 9-mer peptide of HPV16 E7]",Minor (“Minor epitopes” are those that have a response rate that is at least twice the background value)
16,"MHGDTPTLH (human papillomavirus) [HPV E7.16 Peptide 1, 9-mer peptide of HPV16 E7]",Minor (“Minor epitopes” are those that have a response rate that is at least twice the background value)
17,"TLHEYMLDL (human papillomavirus) [HPV E7.16 Peptide 7, 9-mer peptide of HPV16 E7]",Minor (“Minor epitopes” are those that have a response rate that is at least twice the background value)
18,"TPTLHEYML (human papillomavirus) [HPV E7.16 Peptide 5, 9-mer peptide of HPV16 E7]",Minor (“Minor epitopes” are those that have a response rate that is at least twice the background value)

# Same assay, conditions: HPV E7.18 9-mer peptides, 5 μg/ml, 58 donors, 1 μg/ml anti-CD40; positive response at least 2.95 times the background
row,Sequence,Epitope Classification
1,"ARRAEPQRH (human papillomavirus) [HPV E7.18 Peptide 51, 9-mer peptide of HPV18 E7]",Minor (“Minor epitopes” are those that have a response rate that is at least twice the background value)
2,"CKCEARIKL (human papillomavirus) [HPV E7.18 Peptide 66, 9-mer peptide of HPV18 E7]",Minor (“Minor epitopes” are those that have a response rate that is at least twice the background value)
3,"PQNEIPVDL (human papillomavirus) [HPV E7.18 Peptide 17, 9-mer peptide of HPV18 E7]",Minor (“Minor epitopes” are those that have a response rate that is at least twice the background value)
4,"RIKLVVESS (human papillomavirus) [HPV E7.18 Peptide 71, 9-mer peptide of HPV18 E7]",Minor (“Minor epitopes” are those that have a response rate that is at least twice the background value)
5,"SFVCPWCAS (human papillomavirus) [HPV E7.18 Peptide 95, 9-mer peptide of HPV18 E7]",Minor (“Minor epitopes” are those that have a response rate that is at least twice the background value)

# Source: patent US7329498B2, “HPV CD8+ T-cell epitopes” (Genencor International, Inc., priority 2003, dated 2008)
